Source: US20260335293A1, “USE OF NOVEL COMPOUND FOR TREATING INTRACTABLE DISEASES” (YJ CERAPEUTICS INC., priority 2023, published 2026)

Tests used:
Format in all cases: in vivo, Sprague-Dawley rats
[1] = tested on: mTOR pathway; assay: mTOR pathway in SNI model, Western blot; conditions: 4 weeks after nerve injury
Protocol: FIG. 5B is a diagram showing results of analyzing the expression of factors associated with a mTOR signaling pathway in an inflammation-inhibiting mechanism in an SNI animal model by Western blot.
(§1) To determine through which signaling pathway YJ102 inhibited a neuroinflammatory response, there was analyzed increased expression and activation of histone demethylase JMJD3 and expression changes of factors associated with JAK/STAT3 pathway, mTOR pathway, and TRPM7-mediated pathway, which were known as important regulatory mechanisms and epigenetic regulators mediating the neuroinflammatory response, in the tissues of the SNI animal model 4 weeks after nerve injury.

[2] = tested on: p75; assay: p75 expression in urothelium of SCI model, RT-PCR and Western blot; conditions: after SCI
[3] = tested on: urothelium (TUNEL-positive cells); assay: Urothelial cell apoptosis in SCI model, TUNEL staining; conditions: day 3 after SCI; vs Vehicle
[4] = tested on: Occludin; assay: Tight junction protein Occludin in bladder of SCI model, Western blot and immunofluorescence
[5] = tested on: UPIII; assay: Urothelial marker UPIII in SCI model, Western blot; conditions: day 3 after SCI
[6] = tested on: collagen in bladder muscle; assay: Collagen content in bladder muscle (Masson's trichrome) in SCI model; conditions: 5 mg/kg i.p., day 1 after SCI, vs normal group
[7] = tested on: neuropathic pain (mechanical allodynia) in SCI, LSS and SNI animal models; assay: Mechanical allodynia (von Frey, 50% threshold) in SCI, LSS and SNI neuropathic pain models
Protocol: To be used as a central nerve injury animal model, a traumatic spinal cord injury (SCI) model was prepared (FIG. 1A). Specifically, 230 to 250 g of male adult Sprague-Dawley rats were anesthetized by intraperitoneal injection of chloral hydrate (500 mg/kg), and then the back and neck regions were shaved, and the spinal cord under the back and neck regions was exposed without damaging the dura mater, and a laminectomy was performed at T9 to T10 levels. To stabilize the spine, the spinous processes of T8 and T11 were fixed, and the spine was damaged by free-falling a 10 g weight from a height of 25 mm using an NYU impactor onto the back surface of the exposed spinal cord and then the rats were left in a temperature and humidity-controlled chamber overnight while covering the muscles and skin. After surgery, the rats were subcutaneously injected with a supplement solution (5 ml, lactated ringer) and injected with antibiotics (gentamicin, 5 mg/kg, intramuscular injection) once daily for 5 days. The body weight, remaining food, and the weight of water were confirmed and recorded for all animals, and the bladder was emptied twice daily by passive bladder massage until reflex micturition was established. At this time, a Sham group was a group that was subjected to only laminectomy without damage.
To be used as a peripheral nerve injury animal model, a lumbar spinal stenosis (LSS) model was prepared (FIG. 1B). Specifically, 260 to 280 g of adult male Sprague-Dawley rats were anesthetized with intraperitoneal injection of chloral hydrate (500 mg/kg), the back region was shaved, and then the spinal plate was exposed at L4 to S2 levels. After removing the ligamentous section between L4 and L5, a trapezoidal silicone block (1.00 mm long×1.3 to 1.2 mm wide×1.0 mm high) was inserted into the epidural space below the L5 and L6 spinal plates without damaging the dural sac. At this time, a Sham group was a group that was subjected to only posterior […] on the animal without inserting a silicone block.
To be used as a peripheral nerve injury animal model, a sciatic nerve injury (SNI) model was prepared (FIG. 1C). Specifically, 200 to 220 g of male adult Sprague-Dawley rats were anesthetized by intraperitoneal injection of chloral hydrate (500 mg/kg), and then three terminal branches (tibial, common peroneal, and sural nerves) of the right sciatic nerve were approached, and the tibia nerve and the peroneal nerve were tightly ligated with 4-0 silk, and neurectomy was performed at a distal 3 mm position of the ligation site. At this time, a Sham group was a group that exposed only the sciatic nerve without damage.
In order to confirm a neuropathic pain inhibitory effect of YJ102 (Chemical Formula 1), a compound of the present disclosure, in the three nerve injury animal models prepared in Example 1 above, rats having pain on week 3 (SNI model) or week 4 (SCI model and LSS model) after surgery were selected and administered orally (p.o.) at 10 mg/kg or 20 mg/kg of YJ102 dissolved in a solution of DMSO, methyl pyrrolidinone, and water (1:1.5:1), or intraperitoneally injected (i.p. injection) at 1, 2, or 5 mg/kg of YJ102. In a positive control group, gabapentin or pregabalin dissolved in saline was intraperitoneally injected at a concentration of 5 mg/kg, and in a Vehicle group, the same amount of a solution of DMSO, methyl pyrrolidinone, and water was administered. Thereafter, in order to measure mechanical allodynia, the rats were located at the bottom of a transparent plastic box (10 cm×10 cm) on top of a wire mesh (3 mm×3 mm) and subjected to an adaptation period for approximately 20 minutes. Von-Frey filaments were applied to the soles of both paws and used with stiff nylon von-Frey monofilament series ([…], Stoelting, WoodDale, IL, USA; equivalent in grams to 0.4, 0.6, 1.0, 2.0, 4.0, 6.0, 8.0 and 15.0) with logarithmic increases in tactile (mechanical) sensitivity. […]

[8] = tested on: sedation; assay: Sedation as side effect of the drug; conditions: 100 mg/kg
[9] = tested on: TRPM7; assay: TRPM7 expression in SNI model, Western blot; conditions: 4 weeks after nerve injury
Protocol: FIG. 5C is a diagram showing results of analyzing the expression of TRMP7 in an SNI animal model by Western blot.
as §1

[10] = tested on: caspase-3; assay: Caspase-3 activation (cleaved caspase-3) in urothelium of SCI model, Western blot; conditions: day 3 after SCI
[11] = p.o. 10 mg/kg or 20 mg/kg, all three models (SCI, LSS, SNI)

## CCc1ccc(N(C(=O)COC)c2nc3cc(Cl)ccc3o2)cc1 [YJ102]
[1]
  activity of S6: inhibiting the activity
  activity of p70S6kinase: inhibiting the activity
[2]; RT-PCR (mRNA)
  p75 expression: significantly reduced
[2]; Western blot (protein)
  p75 expression: significantly reduced
[3]
  number of TUNEL-positive cells in the urothelium: significantly reduced
[4]; SCI day 1, Western blot
  reduction in amount of Occludin: significantly inhibited
[4]; after SCI, immunofluorescence
  reduction in Occludin in the urothelium: inhibited
[5]
  reduction in level of UPIII (urothelial loss): inhibited
[6]
  collagen content in the bladder muscle: maintained at a level almost similar to that of the normal group
[7]; i.p.
  duration of analgesic effect relative to existing drugs (gabapentin, pregabalin): more than three times longer
[7]; i.p., at the same concentration as gabapentin or pregabalin
  analgesic effect relative to gabapentin or pregabalin: more than twice as high
[7]; [11]
  duration of analgesic effect: ≥ 4 h
  mechanical allodynia threshold increased from (time after administration): 30 min
[8]
  sedation: sedation was not observed
[9]
  expression of TRPM7: inhibited the expression
[10]
  caspase-3 activation: inhibited
